The target in test [1] is recombinant N-type (Cav2.2) VGCCs α1B-b/α2δ1/β3 (Rattus norvegicus, UniProt Q02294). In words: cell-based. The class given is cell-based.
The subject of test [2] is recombinant N-type (Cav2.2) VGCCs α1B-b/β3. The class given is cell-based, rat.
Test [3] addresses recombinant Cav2.3 α1E (R-type) channels (α/α2δ1/β3) (Rattus norvegicus, UniProt Q07652). It counts as cell-based.
Test [4] concerns the target recombinant Cav2.1 α1A (P/Q-type) channels (α/α2δ1/β3) (Oryctolagus cuniculus, UniProt P27884). The test can be described thus: cell-based. The arrangement: species or system rabbit. The following applies: read-out: inhibition of Cav2.1 channels.
Test [5] has as its target recombinant Cav1.3 α1D (L-type) channels (α/α2δ1/β3) (Rattus norvegicus, UniProt P27732). The class given is cell-based.
For test [6], the target named is recombinant Cav1.2 α1C (L-type) channels (α/α2δ1/β3) (Oryctolagus cuniculus, UniProt P15381). It counts as cell-based, rabbit.

The Hill slope is a measure of the steepness of the concentration-response curve. Usually IC50 stands for the point on the concentration scale where inhibition reaches its midpoint. The inhibition is the share of the control response that was lost under treatment.

Values joined by “and” are separate entries in the source; they are usually repeats but may differ in a detail not shown here. Identical values can stand only once. Where a SMILES comes first, the peptide text is derived from it.

Sequence of recombinant N-type (Cav2.2) VGCCs α1B-b/α2δ1/β3 (Q02294 whole entry, looked up): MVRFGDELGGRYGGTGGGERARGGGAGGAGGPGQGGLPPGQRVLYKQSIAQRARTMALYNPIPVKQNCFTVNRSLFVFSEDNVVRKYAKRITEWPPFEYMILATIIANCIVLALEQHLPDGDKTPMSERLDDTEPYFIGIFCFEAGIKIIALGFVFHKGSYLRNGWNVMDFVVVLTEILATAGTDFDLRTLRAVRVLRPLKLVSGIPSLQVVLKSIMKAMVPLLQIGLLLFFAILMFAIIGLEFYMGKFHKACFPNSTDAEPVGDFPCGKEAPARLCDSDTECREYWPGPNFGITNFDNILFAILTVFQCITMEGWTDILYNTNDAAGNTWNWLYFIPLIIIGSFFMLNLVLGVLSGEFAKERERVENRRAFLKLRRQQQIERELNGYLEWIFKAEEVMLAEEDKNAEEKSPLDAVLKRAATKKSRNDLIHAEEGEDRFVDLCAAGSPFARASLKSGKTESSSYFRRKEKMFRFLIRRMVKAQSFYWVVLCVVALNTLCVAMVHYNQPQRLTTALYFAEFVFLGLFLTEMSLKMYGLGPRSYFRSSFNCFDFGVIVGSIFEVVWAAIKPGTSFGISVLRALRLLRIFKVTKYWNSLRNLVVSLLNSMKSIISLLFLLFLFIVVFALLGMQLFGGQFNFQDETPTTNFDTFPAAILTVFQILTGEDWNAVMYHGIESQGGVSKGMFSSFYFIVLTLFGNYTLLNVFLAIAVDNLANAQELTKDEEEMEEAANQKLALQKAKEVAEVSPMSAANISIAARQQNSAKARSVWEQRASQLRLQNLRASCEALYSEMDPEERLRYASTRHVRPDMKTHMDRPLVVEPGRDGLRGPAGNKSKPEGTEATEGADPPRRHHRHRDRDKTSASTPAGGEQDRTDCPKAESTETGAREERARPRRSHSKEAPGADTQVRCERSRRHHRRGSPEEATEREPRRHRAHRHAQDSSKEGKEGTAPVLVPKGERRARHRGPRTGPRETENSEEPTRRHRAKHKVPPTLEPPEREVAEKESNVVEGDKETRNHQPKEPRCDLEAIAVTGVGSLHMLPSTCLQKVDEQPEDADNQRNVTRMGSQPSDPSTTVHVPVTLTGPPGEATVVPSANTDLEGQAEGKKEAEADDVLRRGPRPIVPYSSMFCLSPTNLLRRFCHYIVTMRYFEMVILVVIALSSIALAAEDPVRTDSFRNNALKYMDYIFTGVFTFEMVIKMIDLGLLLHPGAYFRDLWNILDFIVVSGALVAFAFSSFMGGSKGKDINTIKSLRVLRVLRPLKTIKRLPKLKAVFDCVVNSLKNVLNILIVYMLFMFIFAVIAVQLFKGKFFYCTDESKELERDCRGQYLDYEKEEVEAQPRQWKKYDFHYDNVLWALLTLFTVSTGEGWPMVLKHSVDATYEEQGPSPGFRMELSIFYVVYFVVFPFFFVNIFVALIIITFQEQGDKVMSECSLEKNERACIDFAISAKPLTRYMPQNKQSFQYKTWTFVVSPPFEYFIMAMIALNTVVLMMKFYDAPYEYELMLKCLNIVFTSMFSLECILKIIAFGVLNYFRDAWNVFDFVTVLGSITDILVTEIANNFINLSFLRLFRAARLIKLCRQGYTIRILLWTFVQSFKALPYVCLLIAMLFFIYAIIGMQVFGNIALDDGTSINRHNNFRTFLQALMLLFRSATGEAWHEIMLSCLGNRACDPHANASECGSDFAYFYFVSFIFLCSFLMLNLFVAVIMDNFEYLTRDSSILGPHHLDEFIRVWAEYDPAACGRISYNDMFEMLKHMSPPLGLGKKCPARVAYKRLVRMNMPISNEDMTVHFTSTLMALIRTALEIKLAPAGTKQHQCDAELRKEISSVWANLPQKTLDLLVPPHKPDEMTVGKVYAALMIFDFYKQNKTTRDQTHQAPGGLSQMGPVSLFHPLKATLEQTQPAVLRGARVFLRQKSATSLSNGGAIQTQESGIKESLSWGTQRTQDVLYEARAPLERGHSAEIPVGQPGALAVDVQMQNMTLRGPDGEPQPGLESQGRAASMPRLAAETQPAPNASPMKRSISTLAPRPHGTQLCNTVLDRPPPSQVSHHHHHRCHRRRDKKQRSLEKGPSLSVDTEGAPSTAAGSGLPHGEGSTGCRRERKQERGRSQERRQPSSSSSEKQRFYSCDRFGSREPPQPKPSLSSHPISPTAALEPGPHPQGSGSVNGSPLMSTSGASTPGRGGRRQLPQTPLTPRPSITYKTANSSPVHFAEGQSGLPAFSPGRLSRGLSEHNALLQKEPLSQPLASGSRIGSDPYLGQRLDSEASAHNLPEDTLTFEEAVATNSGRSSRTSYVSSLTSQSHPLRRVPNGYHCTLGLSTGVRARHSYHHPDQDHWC
Sequence of recombinant Cav1.3 α1D (L-type) channels (α/α2δ1/β3) (P27732 whole entry, looked up): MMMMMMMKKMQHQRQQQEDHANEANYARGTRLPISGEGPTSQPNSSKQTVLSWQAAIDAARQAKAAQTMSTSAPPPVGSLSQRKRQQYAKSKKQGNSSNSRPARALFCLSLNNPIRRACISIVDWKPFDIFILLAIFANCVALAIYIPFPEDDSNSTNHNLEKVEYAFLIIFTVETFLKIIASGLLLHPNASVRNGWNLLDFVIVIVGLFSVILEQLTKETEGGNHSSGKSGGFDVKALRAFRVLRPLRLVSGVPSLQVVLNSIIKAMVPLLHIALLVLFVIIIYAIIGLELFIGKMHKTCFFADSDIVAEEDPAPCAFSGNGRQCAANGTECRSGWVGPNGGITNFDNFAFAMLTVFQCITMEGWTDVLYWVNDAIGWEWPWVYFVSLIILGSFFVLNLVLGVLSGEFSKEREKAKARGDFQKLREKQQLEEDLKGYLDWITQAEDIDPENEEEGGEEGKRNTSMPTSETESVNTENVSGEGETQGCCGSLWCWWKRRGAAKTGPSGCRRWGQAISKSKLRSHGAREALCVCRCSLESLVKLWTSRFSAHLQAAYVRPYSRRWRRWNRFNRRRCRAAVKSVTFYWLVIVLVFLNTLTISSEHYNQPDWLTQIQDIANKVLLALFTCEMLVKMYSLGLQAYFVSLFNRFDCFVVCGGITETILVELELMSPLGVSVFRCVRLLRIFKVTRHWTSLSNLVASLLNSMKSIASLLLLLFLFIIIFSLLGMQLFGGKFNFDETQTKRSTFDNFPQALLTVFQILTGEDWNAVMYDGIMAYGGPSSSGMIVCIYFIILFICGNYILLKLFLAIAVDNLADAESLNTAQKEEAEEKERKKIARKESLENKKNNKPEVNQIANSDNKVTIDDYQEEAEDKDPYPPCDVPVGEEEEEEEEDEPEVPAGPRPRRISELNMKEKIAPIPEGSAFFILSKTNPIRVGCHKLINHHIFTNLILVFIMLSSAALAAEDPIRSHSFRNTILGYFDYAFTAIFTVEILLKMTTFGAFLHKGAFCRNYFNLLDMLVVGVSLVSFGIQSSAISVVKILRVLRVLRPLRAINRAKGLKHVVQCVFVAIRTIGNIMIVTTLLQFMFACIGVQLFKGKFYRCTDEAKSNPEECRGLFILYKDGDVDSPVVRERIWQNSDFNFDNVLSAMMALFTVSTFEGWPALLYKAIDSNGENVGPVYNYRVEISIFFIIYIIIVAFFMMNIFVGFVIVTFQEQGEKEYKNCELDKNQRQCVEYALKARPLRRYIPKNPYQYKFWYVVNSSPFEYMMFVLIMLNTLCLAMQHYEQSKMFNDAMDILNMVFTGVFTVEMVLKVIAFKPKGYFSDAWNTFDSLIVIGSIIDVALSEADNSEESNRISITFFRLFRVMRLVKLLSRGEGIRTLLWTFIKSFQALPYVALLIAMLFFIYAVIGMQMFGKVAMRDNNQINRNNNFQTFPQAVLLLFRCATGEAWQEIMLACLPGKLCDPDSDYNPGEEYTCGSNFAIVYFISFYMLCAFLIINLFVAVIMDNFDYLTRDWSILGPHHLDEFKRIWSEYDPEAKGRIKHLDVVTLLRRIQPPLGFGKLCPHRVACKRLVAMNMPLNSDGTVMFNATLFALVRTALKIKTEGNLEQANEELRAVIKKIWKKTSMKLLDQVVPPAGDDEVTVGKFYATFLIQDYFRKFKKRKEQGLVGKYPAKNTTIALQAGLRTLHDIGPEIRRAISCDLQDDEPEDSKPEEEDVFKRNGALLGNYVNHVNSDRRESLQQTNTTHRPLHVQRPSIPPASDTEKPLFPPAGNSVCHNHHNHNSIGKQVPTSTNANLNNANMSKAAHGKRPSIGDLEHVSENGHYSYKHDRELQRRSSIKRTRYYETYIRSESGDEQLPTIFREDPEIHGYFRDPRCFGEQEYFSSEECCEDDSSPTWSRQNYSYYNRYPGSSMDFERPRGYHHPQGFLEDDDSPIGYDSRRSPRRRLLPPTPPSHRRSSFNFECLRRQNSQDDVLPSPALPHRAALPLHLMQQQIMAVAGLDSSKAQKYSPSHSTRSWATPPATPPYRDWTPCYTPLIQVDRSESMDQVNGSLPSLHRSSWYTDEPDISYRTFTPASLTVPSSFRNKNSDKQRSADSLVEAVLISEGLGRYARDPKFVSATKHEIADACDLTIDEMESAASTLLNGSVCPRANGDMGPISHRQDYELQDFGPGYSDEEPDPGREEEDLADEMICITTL

With `CSCC[C@@H]1NC(=O)[C@H]([C@@H](C)O)NC(=O)[C@H](CCCCN)NC(=O)[C@H](CCCNC(=N)N)NC(=O)[C@@H]2CSSC[C@@H]3NC(=O)[C@H](CO)NC(=O)CNC(=O)[C@H](CCCNC(=N)N)NC(=O)[C@H](CSSC[C@H](N)C(=O)N[C@@H](CCCCN)C(=O)NCC(=O)N[C@@H](CCCCN)C(=O)NCC(=O)N[C@@H](C)C(=O)N[C@@H](CO)C(=O)N2)NC(=O)[C@H](CSSC[C@@H](C(N)=O)NC(=O)[C@H](CCCNC(=N)N)NC(=O)CNC(=O)[C@H](CO)NC(=O)[C@H](CCCNC(=N)N)NC3=O)NC(=O)[C@H](CC(=O)O)NC(=O)[C@H](Cc2ccc(O)cc2)NC1=O` [CVIB, reference compound] (HELM PEPTIDE1{C.K.G.K.G.A.S.C.R.K.T.M.Y.D.C.C.R.G.S.C.R.S.G.R.C.[am]}$PEPTIDE1,PEPTIDE1,1:R3-16:R3|PEPTIDE1,PEPTIDE1,8:R3-20:R3|PEPTIDE1,PEPTIDE1,15:R3-25:R3$$$V2.0), in test [1], the Hill slope stood at 0.47±0.03 and the half-inhibitory concentration (IC50) was 12 ± 2.3 nM. In addition, the IC50 in test [2] was 1.6 ± 0.6 nM.
On to `C[C@@H]1NC(=O)CNC(=O)[C@H](CCCCN)NC(=O)CNC(=O)[C@H](CCCCN)NC(=O)[C@@H](N)CSSC[C@@H]2NC(=O)[C@@H]3CSSC[C@@H](C(N)=O)NC(=O)[C@H](CCCNC(=N)N)NC(=O)CNC(=O)[C@H](CO)NC(=O)[C@H](CCCNC(=N)N)NC(=O)[C@H](CSSC[C@H](NC(=O)[C@H](CO)NC1=O)C(=O)N[C@@H](CCCNC(=N)N)C(=O)N[C@@H](CCCNC(=N)N)C(=O)N[C@@H]([C@@H](C)O)C(=O)N[C@@H](CO)C(=O)N[C@@H](Cc1ccc(O)cc1)C(=O)N[C@@H](CC(=O)O)C(=O)N3)NC(=O)[C@H](CO)NC(=O)CNC(=O)[C@H]([C@@H](C)O)NC2=O` [CVIE, CKGKGASCRRTSYDCCTGSCRSGRC], for which, in test [3], the “effect on Cav2.3 channels” value is given as “neither peptide had any effect”. Further, the inhibition at 3 µM in test [4] is below 10%. Besides, in test [1], the Hill slope came to 0.45±0.03; the IC50 worked out at 2.6 ± 0.5 nM; the “inhibition of depolarization-activated Ba2+ currents (IBa)” value was “potently inhibited”; the “time constant of block (τon)” value was 31.5 ± 2.4 s and 38.5 ± 2.8 s. The “effect on Cav1.3 channels” value in test [5] was “neither peptide had any effect”. For the same compound, the “effect on Cav1.2 channels” value in test [6] is on record as “neither peptide had any effect”. Moreover, in test [2], the 50% inhibitory concentration (IC50) came to 0.12 ± 0.05 nM.
With `CC(C)C[C@@H]1NC(=O)[C@H](CCCNC(=N)N)NC(=O)[C@@H]2CSSC[C@@H]3NC(=O)[C@H](CO)NC(=O)[C@H](C)NC(=O)CNC(=O)[C@H](CCCCN)NC(=O)CNC(=O)[C@H](CCCCN)NC(=O)[C@@H](N)CSSC[C@H](NC(=O)[C@H](CSSC[C@@H](C(N)=O)NC(=O)[C@H](CCCNC(=N)N)NC(=O)CNC1=O)NC(=O)[C@H](CC(=O)O)NC(=O)[C@H](Cc1ccc(O)cc1)NC(=O)[C@H](CO)NC(=O)[C@H]([C@@H](C)O)NC(=O)[C@H](CCCNC(=N)N)NC(=O)[C@H](CCCNC(=N)N)NC3=O)C(=O)N[C@@H]([C@@H](C)O)C(=O)NCC(=O)N[C@@H](CO)C(=O)N2` [CVIF] (HELM PEPTIDE1{C.K.G.K.G.A.S.C.R.R.T.S.Y.D.C.C.T.G.S.C.R.L.G.R.C.[am]}$PEPTIDE1,PEPTIDE1,1:R3-16:R3|PEPTIDE1,PEPTIDE1,8:R3-20:R3|PEPTIDE1,PEPTIDE1,15:R3-25:R3$$$V2.0), the “effect on Cav2.3 channels” value in test [3] was “neither peptide had any effect”. The inhibition at 3 µM in test [4] was below 10%. For the same compound, in test [1], the Hill slope is on record as 0.51±0.04 and the “inhibition of depolarization-activated Ba2+ currents (IBa)” value is reported as “potently inhibited”. Also, in test [5], the “effect on Cav1.3 channels” value is on record as “neither peptide had any effect”. Also, in test [6], the “effect on Cav1.2 channels” value was “neither peptide had any effect”. Besides, the IC50 in test [2] stood at 0.1 ± 0.07 nM.
